In PMC7496268, “Activity‐Directed Synthesis of Inhibitors of the p53/hDM2 Protein–Protein Interaction” (Chemistry (Weinheim an Der Bergstrasse, Germany), 2020):

Each compound was assayed against T1, hDM2 (Homo sapiens, UniProt Q00987) (assay: biochemical). Conditions: read-out: FA IC50.
T1 construct: gene MDM2; 15N-labelled for NMR; the anisotropy footnote prints hDM2_17-25, apparently a misprint of 17-125
Set-up: fluorescence anisotropy competition, displacement of fluorescein-labelled p53 15-31 peptide from hDM2
Protocol: The assay was then implemented similarly to the examples above to give final compound concentrations between 160 – 0.08 µM. IC50 values were determined and curves were fit in Origin Pro 2019b using a non-linear curve fitting with the dose response fitting procedure and Levenberg Marquardt iteration algorithm. 17 5.2 Fluorescence anisotropy assays The fluorescein-labelled p5315-31 Flu transactivation domain peptide (Ac-[…](Flu)- NH2) was purchased from Peptide Synthetics. The assay was carried out using Perkin-Elmer 384-well Opti-plate assay plates (6007270). Fluorescence anisotropy assays were performed in a buffer containing 40 mM phosphate pH 7.5, 200 mM NaCl and 0.02 mg/mL bovine serum albumin (PBSA). Results were collected using a Perkin-Elmer Envision 2103 Multilabel Reader using a 431 nm mirror, 480(104) nm excitation filter, and 535(208) and 535(209) nm emission filters after 2.5 or 24 hours of incubation at room temperature. Test well anisotropy values were then calculated using the blank corrected S and P channel values using the following formula: […]

| SMILES | IC50 [µM] |
| --- | --- |
| O=C(COC1CCc2cc(Cl)ccc21)N1CCCC1 (centres unmarked) [SI2] | > 200 |
| O=C(COC1CCCC1)N1CCC(c2ccccc2)C1 (centres unmarked) [SI1] | > 200 |
| O=C(CO[C@H]1CCc2cc(Cl)ccc21)N1CC[C@@H](c2ccccc2)C1 [P2b] | 36.5 ± 3.5 |
| O=C(CO[C@@H]1CCc2cc(Cl)ccc21)N1CC[C@H](c2ccccc2)C1 [ent-P2b] | 28.6 ± 2.9 |
| O=C(CO[C@H]1CCc2cc(Cl)ccc21)N1CC[C@H](c2ccccc2)C1 [ent-P2a] | 26 ± 3.8 |
| O=C(CO[C@@H]1CCc2cc(Cl)ccc21)N1CC[C@@H](c2ccccc2)C1 [P2a] | 28.2 ± 3 |

These compounds were tested against T1, hDM2 (assay: 1H-15N HSQC NMR titration). Conditions: read-out: NMR Binding^[d] (K d/μM).
Description: 1H-15N HSQC NMR titration on hDM2

| SMILES | Kd [µM] |
| --- | --- |
| O=C(COC1CCc2cc(Cl)ccc21)N1CCC(c2ccccc2)C1 (centres unmarked) [P2] | 34 ± 13 |
| CN(C(=O)C(=O)c1ccc(Cl)cc1)c1ccc(Cl)cc1 [P4] | 35 ± 16 |

What follows are compounds tested against T1, hDM2 (assay: fluorescence anisotropy competition, displacement of fluorescein-labelled p53 tracer peptide). Conditions: read-out: Fluorescence anisotropy^[c] IC50.
Type: binding
Description: fluorescence anisotropy competition, displacement of fluorescein-labelled p53 tracer peptide on hDM2

| SMILES | IC50 [µM] |
| --- | --- |
| CCOCC1CC12C(=O)Nc1cc(Cl)ccc12 (centres unmarked) [P7] | > 160 |
| O=C(COC1CCc2cc(Cl)ccc21)N1CCC(c2ccccc2)C1 (centres unmarked) [P2] | 15 ± 0.1 |
| O=C1Nc2cc(Cl)ccc2C1c1c[nH]c2cc(Cl)ccc12 (centres unmarked) [P6] | 0.94 ± 0.03 |
| CN(C(=O)C(=O)c1ccc(Cl)cc1)c1ccc(Cl)cc1 [P4] | > 30 |
| CN1C(=O)C(c2ccc(Cl)cc2)c2cc(Cl)ccc21 (centres unmarked) [P3] | > 100 |

Same assay, conditions: […] hDM2, […] tracer, […] BSA, […] NaCl, […] DMSO, […] phosphate pH […] h; unreliable (limited solubility)

| SMILES | Fluorescence anisotropy^[c] IC50 [μM] |
| --- | --- |
| O=C1Nc2cc(Cl)ccc2C12CC2c1ccc(Cl)cc1 (centres unmarked) [P5] | ~ 10 μM |
